Laboratory results reported in patent publication US20230234967A1, “Fused Azole Heterocycles as AHR Antagonists” (Senda Biosciences, Inc., priority 2021, published 2023).
Values after ≈ are worked out from the molar mass of the structure shown. Where two headings read alike, the source gives them in different places.

Key:
[1] = Solubility Determination Assay (PBS pH 1.6 and pH 7.4); assay type: physicochemical; settings: PBS buffer, aqueous buffer, kinetic from dmso stock, 2 hours shaking
Description: Example 31: Solubility Determination Assay
The stock solutions of test compounds and control compound progesterone were prepared in DMSO at the concentrations of 10 mM. 15 μL of stock solution (10 mM) of each sample was placed in order into their proper 96-well rack. 485 μL of PBS pH 1.6 and pH 7.4 were added into each vial of the cap-less Solubility Sample plate. The assay was performed in singlet. One stir stick was added to each vial and then the vial was sealed using a molded PTFE/Silicone plug. The solubility sample plates were then transferred to the Eppendorf Thermomixer Comfort plate shaker and shaken at 25° C. at 1100 rpm for 2 hours. After completion of the 2 hours, plugs were removed and the stir sticks were removed using a big magnet. The samples from the Solubility Sample plate were transferred into the filter plate. Using the Vacuum Manifold, all the samples were filtered. An aliquot of 5 μL was taken from the filtrate followed by addition of 495 μL of a mixture of H2O and acetonitrile containing internal standard (1:1). A certain proportion of ultrapure water was used to dilute the diluent according to the peak shape. The dilution factor was changed according to the solubility values and the LC-MS signal response.
From the 10 mM DMSO STD plate, 6 μL was transferred into the remaining empty plate, and then 194 μL of DMSO were added to that plate to have a STD concentration of 300 μM. From the 300 μM DMSO STD plate, 5 μL were transferred into the remaining empty plate, and then 495 μL of a mixture of H2O and acetonitrile containing internal standard (1:1) were added to that plate to have a final STD concentration of 3 μM. A certain proportion of ultrapure water was used to dilute the diluent according to the peak shape. The concentrations of the standard samples were changed according to the LC-MS signal response.
The plate was placed into the well plate autosampler. The samples were evaluated by LC-MS/MS analysis.
All calculations were carried out using Microsoft Excel.
The filtrate was analyzed and quantified against a standard of known concentration using LC coupled with mass spectral peak identification and quantitation. Solubility values of the test compound and control compound were calculated as follows: […]
Any value of the compounds that was not within the specified limits was rejected and the experiment was repeated.
“+++” indicates a solubility value equal to or greater than […] “++” indicates a solubility value between 0.1 and 1 μM and “+” indicates a solubility value less than 0.1 μM.

AHR = target: T1, AHR (Homo sapiens, UniProt P35869); assay: DRE-Luciferase Reporter Assay (HepG2 AhR-Lucia reporter cells); assay type: cell-based; settings: AHR activating ligand at its EC50, luciferase read-out, read-out: HEPG2 Luc IC50
T1 construct: other cell line with a DRE-luciferase reporter stably transfected; endogenous in cells; host or cells: Human HepG2 liver carcinoma AhR-Lucia reporter cells
T1 sequence (P35869 11-848): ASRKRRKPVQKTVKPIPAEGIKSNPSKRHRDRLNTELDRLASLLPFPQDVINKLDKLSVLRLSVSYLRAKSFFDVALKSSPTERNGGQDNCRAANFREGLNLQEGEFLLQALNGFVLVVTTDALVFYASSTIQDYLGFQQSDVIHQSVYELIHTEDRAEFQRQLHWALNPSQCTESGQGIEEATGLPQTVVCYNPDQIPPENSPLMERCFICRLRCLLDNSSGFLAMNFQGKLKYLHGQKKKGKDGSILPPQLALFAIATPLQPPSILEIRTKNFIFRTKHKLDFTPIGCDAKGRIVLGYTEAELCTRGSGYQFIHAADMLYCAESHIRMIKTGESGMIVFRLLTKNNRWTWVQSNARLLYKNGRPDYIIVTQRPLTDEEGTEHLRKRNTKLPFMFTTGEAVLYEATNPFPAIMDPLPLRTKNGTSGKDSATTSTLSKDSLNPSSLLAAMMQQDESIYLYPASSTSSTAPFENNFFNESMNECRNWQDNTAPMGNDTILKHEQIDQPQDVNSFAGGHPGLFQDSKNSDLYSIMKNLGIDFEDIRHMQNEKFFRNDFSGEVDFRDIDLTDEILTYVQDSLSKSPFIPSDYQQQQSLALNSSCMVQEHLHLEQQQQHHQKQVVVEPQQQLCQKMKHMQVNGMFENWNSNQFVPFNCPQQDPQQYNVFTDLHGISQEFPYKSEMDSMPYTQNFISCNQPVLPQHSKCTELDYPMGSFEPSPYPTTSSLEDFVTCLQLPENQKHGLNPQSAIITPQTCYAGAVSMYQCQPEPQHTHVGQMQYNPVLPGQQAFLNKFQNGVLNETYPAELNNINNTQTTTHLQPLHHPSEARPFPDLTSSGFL
Text: Example 27: DRE-Luciferase Reporter Assay
AHR binds to Dioxin Responsive Elements (DRE) upstream of genes that it activates. One measure of AHR activity is activation of a reporter gene, such as luciferase, downstream of one or multiple DRE elements. Luciferase activity will reflect activation and inhibition of AHR in the cells expressing his reporter. 20000 Human HepG2 liver carcinoma—AhR-Lucia reporter cells or Human HT29 colon adenocarcinoma—AhR reporter cells or other cell line with a DRE-luciferase reporter stably transfected were plated in Eagle's Minimal Essential Medium, 10% heat-inactivated FBS, 1×non-essential amino acids Pen-Strep (10,000 U/mL) and Normocin (100 ug/mL) in plates (96-well, 384-well or other plates) and incubated overnight at 37° C. in a CO2 incubator and treated with and without AhR antagonists at a log dilution starting at 100 uM.
After 1 hr that cells were plated an AHR activating ligand, such as TCDD, kynurenine, ITE (2-(1H-indole-3-ylcarbonyl)-4-thiazolecarboxylic methyl ester), VAF347, BNF (beta-naphthoflavone), FICZ (6-formylindolo(3,2-b) carbazole) or other AHR ligands at their specific EC50 concentration, were added to the cells with or without AHR antagonist.
Cells were incubated for 24 or 48 hours or another time point and then, supernatant was analyzed for determination of luciferase activity as a read-out of the AHR activation or inhibition. Luciferase was measured with the commercial kit QUANTI-Luc™ assay solution kit from Invivogen following the manufacturer's instructions.
The level of luciferase with only agonist ligand added was the maximum signal while the luciferase with […] was the minimum signal. IC50 values were determined as the concentration which inhibits half of the luciferase activity. “A” indicates an IC50 value less than 100 nM, “B” indicates an IC50 between 100 and 500 nM, “C” indicates an IC50 above 500 nM.

[2] = PBS pH 1.6, 25° C., read-out: Aq. Solubility at pH = 1.6
[3] = PBS pH 7.4, 25° C., read-out: Aq. Solubility at pH = 7.4

Structure (SMILES) | solubility at 2 h [1, 2] [µM] | solubility at 2 h [1, 3] [µM] | IC50 (AHR) [nM]
COc1ccccc1-c1ccc2nc(NC(=O)c3ccnn3C)sc2n1 [Product 25, N-(5-(2-methoxyphenyl)thiazolo[5,4-b]pyridin-2-yl)-1-methyl-1H-pyrazole-5-carboxamide] | ≥ 1 | ≥ 1 | < 100
Cc1ccccc1-c1ccc2nc(NC(=O)c3ccnn3C)sc2n1 [Product 15, 1-Methyl-N-(5-(o-tolyl)thiazolo[5,4-b]pyridin-2-yl)-1H-pyrazole-5-carboxamide] | 0.1 to 1 (≈ 0.0349 to 0.349 µg/mL) | ≥ 1 | < 100
COc1ccccc1-c1ccc2nc(NC(=O)c3ccccn3)sc2n1 [Product 12, N-(5-(2-methoxyphenyl)thiazolo[5,4-b]pyridin-2-yl)picolinamide] | 0.1 to 1 (≈ 0.0362 to 0.362 µg/mL) | 0.1 to 1 (≈ 0.0362 to 0.362 µg/mL) | < 100
Cc1ccccc1-c1ccc2nc(NC(=O)N3CCOCC3)sc2n1 [Product 39, N-(5-(o-tolyl)thiazolo[5,4-b]pyridin-2-yl)morpholine-4-carboxamide] | ≥ 1 | ≥ 1 | < 100
CN(C)c1ccccc1-c1ccc2nc(NC(=O)c3ccnn3C)sc2n1 [Product 18, N-(5-(2-(dimethylamino)phenyl)thiazolo[5,4-b]pyridin-2-yl)-1-methyl-1H-pyrazole-5-carboxamide] | ≥ 1 | ≥ 1 | < 100
Cn1ncnc1C(=O)Nc1cnc2cc(-c3cc(F)ccc3C(F)F)[nH]c2c1 [Product 47] | ≥ 1 | 0.1 to 1 (≈ 0.0386 to 0.386 µg/mL) | < 100
Cc1ccccc1-c1ccc2nc(NC(=O)c3ccccn3)sc2n1 [Product 8, N-(5-(o-tolyl)thiazolo[5,4-b]pyridin-2-yl)picolinamide] | 0.1 to 1 (≈ 0.0346 to 0.346 µg/mL) | < 0.1 | < 100
